This note sets out measurements from US20030176314A1, “Compounds for the treatment of pain” (priority 2001, published 2003).

Each structure is given as a SMILES string.

Assay [1] deals with T1, human α1B adrenergic receptor (Homo sapiens, UniProt P35368).
T1 construct: host or cells: LM(tk-) cells, line L-α1B
T1 sequence (P35368 1-520): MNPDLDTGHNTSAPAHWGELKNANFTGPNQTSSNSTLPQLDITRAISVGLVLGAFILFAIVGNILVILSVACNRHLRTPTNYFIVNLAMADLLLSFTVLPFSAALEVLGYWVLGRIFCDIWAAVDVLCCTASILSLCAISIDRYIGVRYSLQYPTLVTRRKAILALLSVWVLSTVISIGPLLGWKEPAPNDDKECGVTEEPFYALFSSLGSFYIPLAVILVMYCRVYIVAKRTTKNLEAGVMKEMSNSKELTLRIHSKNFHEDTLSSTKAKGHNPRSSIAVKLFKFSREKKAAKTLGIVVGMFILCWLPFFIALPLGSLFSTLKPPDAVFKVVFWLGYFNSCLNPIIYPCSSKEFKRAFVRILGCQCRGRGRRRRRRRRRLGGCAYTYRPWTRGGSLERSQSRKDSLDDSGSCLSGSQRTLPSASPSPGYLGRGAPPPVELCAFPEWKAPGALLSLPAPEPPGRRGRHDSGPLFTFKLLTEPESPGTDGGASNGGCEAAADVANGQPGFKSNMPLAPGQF
The experiment in a line: Binding at human α1B adrenergic receptor. Particulars: Table 8; read-out: hα1B Ki. The text has this: α1 Human Adrenergic Receptors: To determine the binding of compounds to human α1 receptors, LM(tk−) cell lines stably transfected with the genes encoding the α1a, α1b, and α1d receptors were used. The nomenclature describing the α1 receptors was changed recently, such that the receptor formerly designated α1a is now designated α1d, and the receptor formerly designated α1c is now designated α1a. The cell lines expressing these receptors were deposited with the ATCC before the nomenclature change and reflect the subtype designations formerly assigned to these receptors. Thus, the cell line expressing the receptor described herein as the α1a receptor was deposited with the ATCC on Sep. […] The cell line expressing receptor described herein as the α1d receptor was deposited with the ATCC on Sep. […] The cell line expressing the α1b receptor is designated L-α1B, and was deposited on Sep.
(§1) The binding affinity (Ki) of these compounds were tested according to the protocols described herein at the following receptors; human α1A, α1B, α1D, α2A, α2B, and α2C adrenergic receptors; human Y1, Y2, Y4, and Y5 receptors; and N-Methyl-D-aspartic acid (NMDA) receptor channels. The binding interactions of these compounds were additionally tested at the norepinephrine (NE) transporter (NE uptake) and serotonin (5-hydroxytryptamine (5HT)) transporter (5HT uptake) according to protocols described herein

Assay [2] concerns the target T2, human α2B adrenergic receptor (Homo sapiens, UniProt P18089).
T2 construct: host or cells: LM(tk-) cells, line L-NGC-α2B
T2 sequence (P18089 1-450): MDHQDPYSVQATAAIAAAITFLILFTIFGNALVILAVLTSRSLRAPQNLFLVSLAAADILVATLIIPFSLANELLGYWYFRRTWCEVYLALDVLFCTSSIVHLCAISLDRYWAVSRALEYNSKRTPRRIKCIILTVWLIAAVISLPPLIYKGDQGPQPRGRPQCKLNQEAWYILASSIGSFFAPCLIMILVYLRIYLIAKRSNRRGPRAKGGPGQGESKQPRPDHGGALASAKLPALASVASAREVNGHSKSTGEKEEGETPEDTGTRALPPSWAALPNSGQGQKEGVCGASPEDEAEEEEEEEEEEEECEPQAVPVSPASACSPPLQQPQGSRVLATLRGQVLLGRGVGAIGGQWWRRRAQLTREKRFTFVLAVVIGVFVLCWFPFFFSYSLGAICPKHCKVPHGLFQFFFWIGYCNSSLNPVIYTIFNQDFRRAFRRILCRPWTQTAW
The experiment in a line: Binding at human α2B adrenergic receptor. Particulars: Table 8; read-out: hα2B Ki.
Text: (§2) α2 Human Adrenergic Receptors: To determine the binding of compounds to human α2 receptors, LM(tk−) cell lines stably transfected with the genes encoding the α2A, α2B, and α2C receptors were used. The cell line expressing the α2A receptor is designated L-α2A, and was deposited on Nov. 6, 1992, under ATCC Accession No. CRL 11180. The cell line expressing the α2B receptor is designated L-NGC-α2B, and was deposited on Oct. 25, 1989, under ATCC Accession No. CRL 10275. The cell line expressing the α2C receptor is designated L-α2C, and was deposited on Nov. 6, 1992, under ATCC Accession No. CRL-11181. Cell lysates were prepared as described herin, and suspended in 25 mM glycyiglycine buffer (pH 7.6 at room temperature). Equilibrium competition binding assay were performed using […] (0.5 nM), and nonspecific binding was determined by incubation with 10 μM phentolamine. The bound radioligand was separated by filtration through GF/B filters using a cell harvester.
as §1

For assay [3], the target named is T3, human α2C adrenergic receptor (Homo sapiens, UniProt P18825).
T3 construct: host or cells: LM(tk-) cells, line L-α2C
T3 sequence (P18825 1-462): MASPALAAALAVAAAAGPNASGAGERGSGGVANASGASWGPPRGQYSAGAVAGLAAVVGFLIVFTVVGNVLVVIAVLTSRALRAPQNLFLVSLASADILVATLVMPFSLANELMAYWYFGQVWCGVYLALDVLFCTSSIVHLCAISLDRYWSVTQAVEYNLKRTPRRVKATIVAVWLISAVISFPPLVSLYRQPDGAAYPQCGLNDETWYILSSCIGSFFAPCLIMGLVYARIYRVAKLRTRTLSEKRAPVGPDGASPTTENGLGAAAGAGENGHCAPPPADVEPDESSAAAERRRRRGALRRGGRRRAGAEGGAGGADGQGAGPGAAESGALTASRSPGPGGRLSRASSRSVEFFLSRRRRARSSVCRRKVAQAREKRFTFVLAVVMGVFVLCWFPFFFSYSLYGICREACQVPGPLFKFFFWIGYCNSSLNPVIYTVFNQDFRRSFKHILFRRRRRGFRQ
The experiment in a line: Binding at human α2C adrenergic receptor. Particulars: Table 8; read-out: hα2C Ki.
Text: as §2, §1

On to `Cc1nc(NC(=N)N)nc2ccc3ccccc3c12` [Compound 1007A], for which the Ki in assay [1] was 3.04 µM. With `Cc1cc(NC(=N)N)nc2ccc(Cl)cc12` [Compound 4005A, N-(6-chloro-4-methyl-2-quinolinyl)guanidine], the values for the Ki in assay [2] and in assay [3] were 3.75 µM and 0.765 µM, respectively.

The term Ki denotes the equilibrium dissociation constant of an inhibitor or competing ligand from its target.
